Columns and labels:
Rv1636 [1] = target: T1, Rv1636 (Mycobacterium tuberculosis, UniProt P9WFC9); assay: isothermal titration calorimetry (VP-ITC), one-site model; format: binding; conditions: read-out: Ka1 (converted)
From the text: isothermal titration calorimetry (VP-ITC), one-site model on Rv1636

Rv1636 [2] = target: T1, Rv1636; assay: malachite green ATPase inhibition assay; format: biochemical; conditions: ATP as substrate; TMD buffer pH 8.0, 10 mM MgCl2
[3] = system: Nc1ncnc2c1ncn2[C@@H]1O[C@H](COP(=O)(O)OP(=O)(O)OP(=O)(O)O)[C@@H](O)[C@H]1O; assay: purified protein; conditions: 50 mM Tris pH 8.0, 10 mM MgCl2, 1 mM DTT, 0-80 µM ATP, 5 µM Rv1636, 1 h

T1 sequence (P9WFC9 whole entry, looked up): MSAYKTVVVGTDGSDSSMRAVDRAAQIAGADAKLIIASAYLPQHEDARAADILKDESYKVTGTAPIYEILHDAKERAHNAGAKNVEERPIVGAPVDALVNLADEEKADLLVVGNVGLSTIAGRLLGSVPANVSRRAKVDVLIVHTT

| Compound | Kd (Rv1636 [1]) | ATPase activity (Rv1636 [2]) | Km [3] | kcat [3] |
| --- | --- | --- | --- | --- |
| CC1(C)CC[C@]2(C)CC[C@]3(C)C(=CC[C@@H]4[C@@]5(C)CC[C@H](O)C(C)(C)[C@@H]5CC[C@]43C)[C@@H]2C1 [β-Amyrin] | 17.8 µM | in the presence of an increasing concentration of β-Amyrin, the result showed a consistent reduction | – | – |
| Rv1636 (Mycobacterium tuberculosis H37Rv) | – | – | 5.187 ± 0.281 µM | 0.000883 ± 1.7e-05 s⁻¹ |
